Test results published in patent publication US9012407B2, “Therapies which act on neuropeptide S receptors” (The Regents of the University of California, priority 2004, dated 2015).

How the values were obtained:
C57Bl/6 mice [1] = experiment: Locomotor activity after i.c.v. administration in naive and habituated mice; type: in vivo; conditions: for locomotor activity: naive and habituated mice, 60 min observation
Method: In view of the NPSR sites of expression and the prominent expression of the NPS precursor in LC area, we hypothesized that NPS may be involved in arousal and anxiety. To start this investigation, we tested the effects of NPS on locomotor activity in both naive and habituated mice (FIG. 7A).
(§1) Male C57Bl/6 mice (National Cancer Institute, Bethesda, MD), age 10-14 weeks, were group-housed (4 animals per cage) under controlled conditions (temperature 21±2° C.; relative humidity 50-60%; 12-hour light-dark cycle, lights on 6:00 AM) with free access to food and water. Prior to drug injections, mice were briefly anesthetized with halothane. NPS was dissolved in phosphate-buffered saline (PBS, pH 7.4) and injected i.c.v. (total volume: 2 μl) as described before (Laursen and Belknap, 1986). Mice were allowed to recover for 5 min and then placed in the observation apparatus.
(§2) Locomotion was monitored in rectangular plexiglass boxes (60×40×50 cm). Horizontal activity was measured over 60 min by 18×12 infrared sensors placed 2 cm above the floor. A second row of sensors at 8 cm above the floor was used to record rearing events. The imaginary central zone was defined as a 30×20 cm rectangle in the middle of each observation area. Data were collected using MatLab (Mathworks, Natick, Mass.). Experimental procedures for open field, elevated plus-maze and light-dark box were described previously (Köster et al., 1999). Marble burying was measured in mice placed individually in polypropylene cages (30×18×12 cm) containing 18 glass marbles (1.5 cm diameter) evenly spaced on 5 cm deep rodent bedding (bed-o'cob, The Andersons Inc., Maumee, Ohio) (Njung'e and Handley, 1991). No food or water was present during the observation period. Cages were covered with a metal grid and the number of marbles covered at least two-thirds was counted after 30 min.

C57Bl/6 mice [2] = experiment: Elevated plus maze; type: in vivo
Method: as §1, §2

NPSR Ile^107 = biological target: T1, NPSR Ile^107 (Homo sapiens, UniProt Q6W5P4, N107I); experiment: Intracellular Ca2+ mobilization (FLIPR) in HEK 293 cells stably expressing NPSR Ile107; type: cell-based; conditions: Ca2+ mobilization, cAMP formation or MAPK phosphorylation
T1 construct: The Ile^107 isoform of NPSR was generated by PCR using synthetic oligonucleotides and the Quik Change Site-Directed Mutagenesis kit from Stratagene; expressed in transfected cells
T1 sequence (Q6W5P4 1-371 N107I): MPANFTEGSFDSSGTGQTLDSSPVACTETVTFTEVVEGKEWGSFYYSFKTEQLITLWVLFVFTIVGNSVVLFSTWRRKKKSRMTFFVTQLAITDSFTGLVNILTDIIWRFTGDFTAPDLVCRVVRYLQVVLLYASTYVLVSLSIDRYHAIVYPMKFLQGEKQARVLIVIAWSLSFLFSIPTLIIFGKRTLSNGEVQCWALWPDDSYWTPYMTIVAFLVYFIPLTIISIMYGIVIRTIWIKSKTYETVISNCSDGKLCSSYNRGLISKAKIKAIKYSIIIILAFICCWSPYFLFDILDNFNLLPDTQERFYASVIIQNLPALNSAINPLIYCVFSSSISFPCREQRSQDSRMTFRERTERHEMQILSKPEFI
Method: Changes of agonist-induced intracellular Ca^2+ were measured using the FLIPR technology as described before (5, 6). NPS and truncated NPS peptides were a gift from Phoenix Pharmaceuticals (Belmont, Calif.). Dose-response curves were calculated using GraphPad Prism (Graph Pad, San Diego). Mean EC50 values of populations of stable clones expressing either wildtype or mutant NPSR were compared using unpaired t-test and p<0.05 was considered significant.
Two cells lines expressing similar levels (measured by radioligand binding; see below) of either NPSR WT or NPSR Ile were chosen for detailed analyses of pharmacological parameters. […] In order to investigate whether this tenfold increase in agonist potency at NPSR lie was a general property of the receptor protein we compared a large number of stable clones expressing either NPSR WT or NPSR Ile^107 by establishing dose-response curves for each construct and calculating mean EC50 values for the populations.

NPSR C-alt = biological target: T2, NPSR C-alt (Homo sapiens, UniProt Q6W5P4); experiment: CRE-luciferase reporter gene assay, HEK 293 cells, NPSR C-alt; type: cell-based; conditions: transiently transfected HEK cells; read-out: EC50, luciferase reporter induction
T2 construct: The C-terminal splice variant of NPSR (NPSR C-alt, GPRA isoform B); expressed in transfected cells; host or cells: HEK 293 cells carrying the CRE-luciferase reporter, transient transfection, pcDNA3.1 hygro
T2 sequence (Q6W5P4 1-377 isoform Q6W5P4-4): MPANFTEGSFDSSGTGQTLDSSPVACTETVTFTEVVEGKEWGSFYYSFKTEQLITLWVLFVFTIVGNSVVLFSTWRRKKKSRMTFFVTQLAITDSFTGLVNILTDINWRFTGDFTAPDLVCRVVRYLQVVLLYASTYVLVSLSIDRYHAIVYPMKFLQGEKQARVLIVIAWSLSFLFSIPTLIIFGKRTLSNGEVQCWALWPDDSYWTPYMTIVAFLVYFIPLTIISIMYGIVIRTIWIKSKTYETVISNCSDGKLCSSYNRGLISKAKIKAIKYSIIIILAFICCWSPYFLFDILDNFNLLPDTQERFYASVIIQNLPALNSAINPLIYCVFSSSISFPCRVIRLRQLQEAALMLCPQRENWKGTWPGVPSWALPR
Text: HEK 293 cells were stably transfected with a reporter gene containing 6 copies of a cAMP response element (CRE; sequence […]) in front of a luciferase reporter gene (Promega) cloned into pcDNA3.1 neo. One stable clone showing robust induction of reporter gene expression after forskolin challenge was chosen for further experiments. The different NPSR isoform cDNAs (cloned into pcDNA3.1 hygro) were transfected into these cells using lipofectamine and stable clones were selected. The same cells and procedures were also used for transient transfection. For induction of reporter gene expression cells were plated in 96-well plates and incubated with agonist for 5 hours in serum-free medium, followed by aspiration of the medium and cell lysis with 25 mM Tris-phosphate, pH 7.8, 2 mM dithiothreitol, 2 mM 1,2-diaminocyclohexane-N,N,N′,N′,-tetraacetic acid, 10% glycerol, 1% Triton X-100. After one freeze-thaw cycle aliquots of supernatant were transferred to white clear-bottom 96-well plates (Greiner) and luciferase content was quantified by bioluminescence (Luc-Screen, Applied Biosystems). Plates were counted in a scintillation counter using bioluminescence settings (MicroBeta, Wallac-Perkin Elmer).

[3] = tested on: Colo205 human colon cancer cells; experiment: Cell proliferation, [3H]-thymidine incorporation in Colo205 cells; type: cell-based
Method: Cells were seeded in 24-well plates and grown overnight to 60-70% confluency. Following 24 h serum-starvation, 2 μCi of methyl-[^3H] thymidine was added together with increasing concentrations of NPS. 500 nM PGE2 served as a positive control. After 3 h incubation cells were washed 3 times with PBS and then lysed with 0.5 N NaOH. The lysate was neutralized with 0.5 N HCl and aliquots were counted in a liquid scintillation counter for incorporated radioactivity.

## NPS: neuropeptide S, endogenous NPSR ligand; species of the peptide not stated at the place of the result (SFRNGVGTGMKKTSFQRAKS)
C57Bl/6 mice [1]; 0.1 nmole i.c.v.
  locomotor activity: significant increase
C57Bl/6 mice [1]; 1 nmole i.c.v.
  locomotor activity: significant increase
C57Bl/6 mice [1]; 0.1 and 1 nmole i.c.v., mice
  total distance traveled, percentage of time moving, number of rearing events and center entries: significantly increased
C57Bl/6 mice [2]; 0.1 and 1 nmole i.c.v.
  number of transitions from closed to open arms: higher number of transitions
  time on the open arms: significantly more time
C57Bl/6 mice [2]; all doses i.c.v.
  closed-closed transitions (general activity): did not reach statistical significance
NPSR Ile^107
  efficacy at NPSR Ile107 as compared to the wildtype receptor: ten-fold
NPSR C-alt
  EC50: 146 ± 15.1 nM
[3]
  doses producing maximal thymidine incorporation: 0.1 to 10 nM
[3]; 3 h incubation
  thymidine incorporation: dose-dependent stimulation
